# Data: publication PMC10721329, “Quisinostat is a brain-penetrant radiosensitizer in glioblastoma” (JCI Insight, 2023)
# “And” between values parts separate entries of the source, which are not always exact repeats. Identical values can stand only once.
# Key:
# [1] = test system: U87 flank tumors; assay: U87 flank tumor growth, QST with or without IR; type: in vivo, athymic nude mice; details: for flank tumor volume: U87, individual mice
# Experimental: We next examined whether QST treatment alone or in combination with IR would be effective in slowing tumor growth in a flank model of GBM (U87). Tumor-bearing mice receiving IR were treated with 2-Gy fractions on Monday, Wednesday, and Friday (MWF) 2 hours after dosing with either vehicle solution or QST (10 mg/kg), for a total dose of 6 Gy. Following completion of IR, mice continued to receive vehicle or QST until the tumors reached the maximum volume threshold (Figure 5C). […] The mean tumor volume in mice with combination treatment was approximately 4.5-fold less than that in vehicle-treated mice at study completion (Figure 5D). […]
# Rad225XL irradiator (Precision X -Ray).
# For flank implantations, cells were pre pared in a 1:1 ratio with 100 uL Matrigel (Corning […]
# syringe fitted with a 26 -gauge needle. Mice were anesthetized with isoflurane in a plastic desiccator placed in an ex ternally vented fume hood. The U87 -Matrigel cell suspension was then subcutaneously injected into the flank of the mouse on the posterior/lateral aspect of the lower rib cage. Mice were monitored daily , and growth of flank tumor area was measured with a di gital caliper (ThermoFisher) twice a week. […]
# Preparation of QST for In Vivo Use
# For in vivo preparation, QST was dissolved in 50% polyethylene glycol (PEG) 300, 50% sterile water solution for 10 mg/kg dosing. The suspension was then sonicated for 10 minutes to allow the drug to completely dissolve. Finally, the pH of both the drug and the vehicle solutions was adjusted to 7.4 before intraperitoneal dosing. […]
# In Vivo Irradiation Studies
# Intracranial or flank tumor–bearing nude mice were sedated with gaseous isoflurane before
# IR. On the first week of treatment, 2 hours after treatment with QST or vehicle, the mice were […]
# treated with 2 Gy of ionizing radiation on MWF for a total 6 Gy (3 doses). Ionizing radiation was administered with the RS2000 series biological research irradiator (Rad Source Technologies).
# Treatment of Flank-Implanted Mice with QST and/or Radiation
# Implanted flank tumors were allowed to grow until the tumor size reached 100 mm3 volume. Mice were randomized into groups before treatment and underwent treatment on MWF for the entire duration of the experiment until the tumor volumes exceeded 2000 mm3. Treatment groups included vehicle (50% PEG-300), QST alone (10 mg/kg), flank IR treatment with vehicle (2 Gy), and flank IR treatment (2 Gy) with QST (10 mg/kg). For mice receiving IR treatment with or without QST, mice were treated with 2 Gy on MWF for a total 6 Gy during the first week of treatment. QST was administered to mice through intraperitoneal injections 2 hours before flank tumor radiation treatment. Upon completion of the radiation regimen, IR-treated mice subsequently received QST or vehicle alone for the rest of the experiment. Tumor growth and treatment response were monitored by manually measuring the tumor area twice per week starting at 13 days after implantation. Upon reaching the tumor volume threshold (2000 mm3), mice were sacrificed, and plasma and tissue samples were harvested for PD and PK analyses 2 hours after treatment with a final dose of QST (10 mg/kg).
# Treatment of Mice with Intracranially Implanted QST and/or Radiation
# Mice with implanted tumors were allowed to grow until the tumor bioluminescence score reached […] radiance (p/s/[…]/sr). Mice were randomized into groups before treatment. For survival studies, mice underwent treatment on MWF for the entire duration of the experiment until moribund. For mice receiving IR treatment with or without QST, mice were treated with 2
# [2] = test system: orthotopic GB126 tumors; assay: RT-qPCR of neuronal genes in GB126 tumors; type: in vivo, athymic nude mice; details: relative to Vehicle mouse 1 = 1, individual mice
# Experimental: Reverse Transcription Quantitative Polymerase Chain Reaction
# Total RNA was extracted from orthotopic tumors by using the RNeasy Mini Kit (Qiagen) in accordance with the manufacturer’s instructions. RNA was quantified on a NanoDrop Spectrophotometer ([…]), and 1 μg of total RNA was used for complementary DNA synthesis by using the SuperScript VILO kit (Life Technologies). Quantitative polymerase chain reaction was performed using inventoried TaqMan assays for respective target genes and housekeeping control genes (18S) on the QuantStudio 6 Flex Real -Time PCR System (Life Technologies).
# Fold change in gene expression was analyzed using the delta delta Ct method.
smiles,measurement,setting,value
"Cn1cc(CNCC2CCN(c3ncc(C(=O)NO)cn3)CC2)c2ccccc21 [QST, quisinostat]",flank tumor volume,"[1]; Combo 10 mg/kg Qstat + 6 Gy IR, day 13 post injection",51.304 mm^3 and 81.733 mm^3 and 83.824 mm^3 and 92.512 mm^3 and 72.03 mm^3 and 53.016 mm^3 and 98.75 mm^3 and 120.094 mm^3
same,flank tumor volume,"[1]; Combo 10 mg/kg Qstat + 6 Gy IR, day 17 post injection",65.596 mm^3 and 96.768 mm^3 and 135.816 mm^3 and 150.381 mm^3 and 167.445 mm^3 and 67.228 mm^3 and 109.551 mm^3 and 200.688 mm^3
same,flank tumor volume,"[1]; Combo 10 mg/kg Qstat + 6 Gy IR, day 27 post injection",91.2925 mm^3 and 64 mm^3 and 59.048 mm^3 and 123.008 mm^3 and 158.112 mm^3 and 72.5 mm^3 and 139.707 mm^3 and 397.373 mm^3
same,flank tumor volume,"[1]; Combo 10 mg/kg Qstat + 6 Gy IR, day 31 post injection",237.141 mm^3 and 56.316 mm^3 and 42.768 mm^3 and 189.216 mm^3 and 218.05 mm^3 and 112.694 mm^3 and 312.188 mm^3 and 612.562 mm^3
same,flank tumor volume,"[1]; Combo 10 mg/kg Qstat + 6 Gy IR, day 34 post injection",414.304 mm^3 and 54.872 mm^3 and 50.274 mm^3 and 397.488 mm^3 and 349.272 mm^3 and 222.95 mm^3 and 441 mm^3 and 1009.49 mm^3
same,flank tumor volume,"[1]; Quisinostat 10 mg/kg IP MWF, day 13 post injection",95.2875 mm^3 and 73.75 mm^3 and 78.4195 mm^3 and 109.8 mm^3 and 67.5 mm^3 and 101.92 mm^3 and 86.756 mm^3 and 57.6 mm^3 and 136.416 mm^3 and 41.8275 mm^3
same,flank tumor volume,"[1]; Quisinostat 10 mg/kg IP MWF, day 17 post injection",210.7 mm^3 and 60.025 mm^3 and 67.76 mm^3 and 121.838 mm^3 and 70 mm^3 and 176.418 mm^3 and 85.054 mm^3 and 154.638 mm^3 and 242.76 mm^3 and 103.823 mm^3
same,flank tumor volume,"[1]; Quisinostat 10 mg/kg IP MWF, day 20 post injection",451.315 mm^3 and 83.1875 mm^3 and 86.756 mm^3 and 196.02 mm^3 and 52.9 mm^3 and 139.24 mm^3 and 89.056 mm^3 and 128.797 mm^3 and 283.279 mm^3 and 129.762 mm^3
same,flank tumor volume,"[1]; Quisinostat 10 mg/kg IP MWF, day 27 post injection",1576.6 mm^3 and 97.556 mm^3 and 122.247 mm^3 and 660 mm^3 and 99.0945 mm^3 and 314.792 mm^3 and 96.9105 mm^3 and 423.864 mm^3 and 686.07 mm^3 and 596.712 mm^3
same,flank tumor volume,"[1]; Quisinostat 10 mg/kg IP MWF, day 31 post injection",2338.49 mm^3 and 75 mm^3 and 125.736 mm^3 and 1098.08 mm^3 and 116.614 mm^3 and 483.181 mm^3 and 162.729 mm^3 and 576 mm^3 and 626.336 mm^3 and 1078.78 mm^3
same,flank tumor volume,"[1]; Quisinostat 10 mg/kg IP MWF, day 34 post injection",2338.49 mm^3 and 62.5 mm^3 and 144.652 mm^3 and 1381.2 mm^3 and 108.192 mm^3 and 501 mm^3 and 248.832 mm^3 and 786.52 mm^3 and 822.197 mm^3 and 1622.4 mm^3
same,"mean tumor volume, fold less than in vehicle-treated mice","[1]; U87 flank, QST 10 mg/kg + IR 6 Gy combination, at study completion",approximately 4.5 fold
same,qPCR CECR2 expression,[2]; Combo (QST + IR),90.297 and 227.304 and 107.431
same,qPCR GABRA2 expression,[2]; Combo (QST + IR),62.6009 and 92.8255 and 56.6887
same,qPCR SCN3A expression,[2]; Combo (QST + IR),28.0147 and 63.295 and 75.3722
same,qPCR BDNF expression,[2]; QST + IR,14.0587 and 9.35 and 2.8459
same,qPCR KCNQ3 expression,[2]; QST + IR,9.67 and 10.8552 and 27.8625
same,qPCR NGFR expression,[2]; QST + IR,3.525 and 9.249 and 10.5627
same,qPCR BDNF expression,[2]; QST,5.022 and 6.518 and 12.9199
same,qPCR CECR2 expression,[2]; QST,38.4564 and 79.55 and 112.554
same,qPCR GABRA2 expression,[2]; QST,1.543 and 82.6227 and 31.8541
same,qPCR KCNQ3 expression,[2]; QST,1.23 and 4.886 and 2.677
same,qPCR NGFR expression,[2]; QST,13.22 and 5.955 and 12.7613
same,qPCR SCN3A expression,[2]; QST,6.113 and 76.4987 and 9.293
